Tests used:
[1] = system: HeLa cervical adenocarcinoma; test: Cell Proliferation Inhibition Assay, Hela (C14 method); type: cell-based; details: Homo sapiens, Table 7
Text: (§1) Cell Proliferation Inhibition Assay
(§2) The ability of a test compound to inhibit unregulated cell proliferation may be determined by measuring incorporation of ^14C-labelled thymidine into newly synthesized DNA within cell lines derived from carcinomas originating from several tissues. Accordingly, the effect of a test compound on proliferation of cells with a variety of phenotypes may be determined.
(§3) Carcinoma cell lines used include the HeLa cervical adenocarcinoma from the American Type Culture Collection (ATCC Cat. #CCL2), A375 malignant melanoma (ATCC Cat. #CRL-1619), HCT-116 colon carcinoma (ATCC Cat. #CCL-247), SKBR3 breast carcinoma (ATCC Cat. #HTB-30) and BT474 breast carcinoma (ATCC Cat. #HTB-20).
(§4) The carcinoma cells were trypsinized and counted. The cells (3000-8000 count) were added to each well of a 96-well CytoStar tissue culture treated scintillating microplate (Amersham #RPNQ0160) in complete medium (100 μL) and the plate was then incubated in complete medium for 24 hrs at 37° C. in an inert atmosphere containing 5% CO2.
(§5) Test compound (1 μL) in 100% DMSO was added to the plate test-wells with DMSO only added to control-wells. The plate was incubated in complete medium for a second 24 hr period at 37° C. in an atmosphere containing 5% CO2.
(§6) An aliquot of a solution of Methyl ^14C-thymidine (56 mC/mmol) (NEN #NEC568 or AMersham #CFA532) and complete medium (20 uL to provide 0.2 μCl/well) was then added to each well and the plate was incubated for a third 24 hr period at 37° C. in an atmosphere containing 5% CO2.
(§7) The plate contents were then discarded, the plate washed twice with PBS (200 μL) and then PBS (200 μL) was added to each well. The plate was sealed and the degree of methyl ^14C-thymidine incorporation was quantified on a Packard Top Count.
(§8) Cell proliferation of the Hela cell line was measured using the ATP-Lite method as described in the ATP Lite Kit (Perkin-Elmer Kit Number 6106941) or the C^14 method as described above. Cell proliferation of the other cell lines was measured using the C^14 method.

[2] = system: HeLa cervical adenocarcinoma; test: Cell Proliferation Inhibition Assay, Hela (ATP Lite); type: cell-based; details: Homo sapiens, ATP-Lite method
Text: as §1, §2, §3, §4, §5, §8

SKBR3 breast carcinoma = test: Cell Proliferation Inhibition Assay, SKBR3 (14C-thymidine); type: cell-based; details: Homo sapiens, SK-BR-3, C14 method
Text: as §1, §2, §3, §4, §5, §6, §7, §8

BT474 breast carcinoma = test: Cell Proliferation Inhibition Assay, BT474 (14C-thymidine); type: cell-based; details: Homo sapiens, BT-474, C14 method
Text: as §1, §2, §3, §4, §5, §6, §7, §8

[3] = system: Human epidermoid A431 carcinoma; test: In Vivo Models - Inhibition of Tumor Growth, A431; details: 100 mg/kg, oral daily for 30 days, athymic mice
Experimental: In Vivo Models—Inhibition of Tumor Growth
The ability of test compounds to inhibit unregulated growth of human tumor cells in vivo was evaluated by implanting human tumor cells into the hindflank of athymic mice, administering a test compound and then quantifying any change in tumor size.
Human epidermoid A431 carcinoma, N87 cells and BT474 cells were implanted subcutaneously into the hindflank of female athymic mice (Charles River) and allowed to grow for 6-10 days. After a measurable tumor was established (as determined by baseline caliper measurement), the animal was administered an oral dose of the test compound daily for a period of 30 days. Tumor size was measured every five days and the degree of inhibition was determined by comparing drug-treated animals to vehicle-treated animals.
Variations of this method are intended to include intraperitoneal injection or intravenous infusion as the route of administration and administration of the test compound either alone or in a combination therapy.
The inhibition of tumor growth values are shown in Table 8 at various test concentrations, as indicated. For compounds with multiple values at one test concentration, each value represents a separate assay result.

HER-4 = molecular target: T1, HER-4 (Homo sapiens, UniProt Q15303); test: HER-4 Kinase Assay; type: biochemical
T1 construct: His6 with thrombin site (N); purchased Proqinase (Freiburg, Germany)
T1 sequence (Q15303 676-1307): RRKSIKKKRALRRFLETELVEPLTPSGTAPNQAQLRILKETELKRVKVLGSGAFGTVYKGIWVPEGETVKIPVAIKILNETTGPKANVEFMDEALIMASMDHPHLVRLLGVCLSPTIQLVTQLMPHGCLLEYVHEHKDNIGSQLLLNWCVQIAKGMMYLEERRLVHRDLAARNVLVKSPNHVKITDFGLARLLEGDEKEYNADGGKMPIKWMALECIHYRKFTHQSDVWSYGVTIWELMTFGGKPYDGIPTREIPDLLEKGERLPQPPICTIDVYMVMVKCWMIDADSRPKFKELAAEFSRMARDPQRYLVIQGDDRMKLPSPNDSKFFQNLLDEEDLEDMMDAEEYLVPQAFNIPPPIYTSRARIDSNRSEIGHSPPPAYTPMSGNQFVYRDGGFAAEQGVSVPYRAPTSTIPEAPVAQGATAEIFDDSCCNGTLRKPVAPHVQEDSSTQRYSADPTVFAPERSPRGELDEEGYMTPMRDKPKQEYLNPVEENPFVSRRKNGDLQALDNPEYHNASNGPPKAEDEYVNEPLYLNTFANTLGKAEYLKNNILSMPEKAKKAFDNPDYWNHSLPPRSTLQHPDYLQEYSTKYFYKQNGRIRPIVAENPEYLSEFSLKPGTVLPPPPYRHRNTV

| IC50 [1] | IC50 [2] | IC50 (SKBR3 breast carcinoma) | IC50 (BT474 breast carcinoma) | IC50 (HER-4) | SMILES | percent inhibition A431 [3] |
| --- | --- | --- | --- | --- | --- | --- |
| ≥ 10 µM | 100 µM | 100 µM | ≥ 100 µM |  | O=C(Nc1ccc(CN2CCOCC2)cc1)c1sc2ncnc3c2c1NC(=O)N3c1cccc(Br)c1 [Cpd 36, 5-(3-bromo-phenyl)-4-oxo-4,5-dihydro-3H-1-thia-3,5,6,8-tetraaza-acenaphthylene-2-carboxylic acid (4-morpholin-4-ylmethyl-phenyl)-amide] |  |
| ≥ 100 µM | 100 µM | 100 µM | ≥ 100 µM |  | O=C(O)c1sc2ncnc3c2c1NC(=O)N3c1ccc(OCc2ccccn2)c(Cl)c1 [Cpd 38, 5-[3-chloro-4-(pyridin-2-ylmethoxy)-phenyl]-4-oxo-4,5-dihydro-3H-1-thia-3,5,6,8-tetraaza-acenaphthylene-2-carboxylic acid] |  |
| ≥ 10 µM | 100 µM | 100 µM | ≥ 10 µM |  | COc1ccc(NC(=O)c2sc3ncnc4c3c2NC(=O)N4c2ccc(OCc3ccccn3)c(Cl)c2)cc1OC [Cpd 48, 5-[3-chloro-4-(pyridin-2-ylmethoxy)-phenyl]-4-oxo-4,5-dihydro-3H-1-thia-3,5,6,8-tetraaza-acenaphthylene-2-carboxylic acid (3,4-dimethoxy-phenyl)-amide] |  |
| ≥ 100 µM | 27 µM | 2.61 µM | 5.98 µM |  | O=C(Nc1ccc(CN2CCOCC2)cc1)c1sc2ncnc3c2c1NC(=O)N3c1ccc(OCc2ccccn2)c(Cl)c1 [Cpd 52, 5-[3-chloro-4-(pyridin-2-ylmethoxy)-phenyl]-4-oxo-4,5-dihydro-3H-1-thia-3,5,6,8-tetraaza-acenaphthylene-2-carboxylic acid (4-morpholin-4-ylmethyl-phenyl)-amide] |  |
|  | 10 µM | 100 µM | ≥ 10 µM |  | O=C(Nc1ccc(NCCCN2CCOCC2)nc1)c1sc2ncnc3c2c1NC(=O)N3c1cccc(Br)c1 [Cpd 64, 5-(3-bromo-phenyl)-4-oxo-4,5-dihydro-3H-1-thia-3,5,6,8-tetraaza-acenaphthylene-2-carboxylic acid [6-(3-morpholin-4-yl-propylamino)-pyridin-3-yl]-amide] |  |
|  | 4.28 µM | 0.144 µM | 0.383 µM | 0.03 µM | O=C(Nc1ccc(CN2CCCCC2)cc1)c1sc2ncnc3c2c1NC(=O)N3c1ccc(Sc2ccccc2)cc1 [Cpd 169, 4-oxo-5-(4-phenylsulfanyl-phenyl)-4,5-dihydro-3H-1-thia-3,5,6,8-tetraaza-acenaphthylene-2-carboxylic acid (4-piperidin-1-ylmethyl-phenyl)-amide] | 55.4% |
|  | 53.4 µM | 0.292 µM | 0.158 µM | 0.126 µM | O=C(Nc1ccc(CN2CCOCC2)cc1)c1sc2ncnc3c2c1NC(=O)N3c1ccc(Sc2ccccc2)cc1 [Cpd 178, 4-oxo-5-(4-phenylsulfanyl-phenyl)-4,5-dihydro-3H-1-thia-3,5,6,8-tetraaza-acenaphthylene-2-carboxylic acid (4-morpholin-4-ylmethyl-phenyl)-amide] |  |

Source: patent publication US7579356B2, “Thia-tetraazaacenaphthylene kinase inhibitors” (Janssen Pharmaceutica NV, priority 2005, dated 2009)
